The values that follow come from the NIST ThermoML archive (doi:10.1021/je500420g).

Numbers after ± are expanded uncertainties.

The nature of the series: xn = mol fraction of the nth substance listed. Conditions: 100 kPa, Liquid, Vibrating tube method.

A word on the mass density: it is mass per unit of volume. With `[Br-].[Li+]` [lithium bromide] + O, the mass density was found to be 1033.5 ± 0.2 kg/m3 (293.15 K, x1 = 0.01); 1101.8 ± 0.3 kg/m3 (293.15 K, x1 = 0.03); 1171.5 ± 0.3 kg/m3 (293.15 K, x1 = 0.05); 1030.2 ± 0.2 kg/m3 (303.15 K, x1 = 0.01); 1098 ± 0.3 kg/m3 (303.15 K, x1 = 0.03); 1168 ± 0.3 kg/m3 (303.15 K, x1 = 0.05). Besides, the mass density (313.15 K, x1 = 0.01) was 1026.3 ± 0.2 kg/m3; the mass density (313.15 K, x1 = 0.03) is reported as 1093.9 ± 0.3 kg/m3; the mass density (313.15 K, x1 = 0.05) came to 1163.9 ± 0.3 kg/m3; the mass density (323.15 K, x1 = 0.01) worked out at 1022 ± 0.2 kg/m3; the mass density (323.15 K, x1 = 0.03) is listed as 1089.4 ± 0.3 kg/m3; the mass density (323.15 K, x1 = 0.05) stood at 1159.3 ± 0.3 kg/m3. The mass density is listed as 1017.2 ± 0.2 kg/m3 (333.15 K, x1 = 0.01); 1084.6 ± 0.3 kg/m3 (333.15 K, x1 = 0.03); 1154.3 ± 0.3 kg/m3 (333.15 K, x1 = 0.05).
As to `[Cl-].[Li+]` [lithium chloride] + O, the mass density (293.15 K, x1 = 0.01) came out at 1012.3 ± 0.2 kg/m3; the mass density (293.15 K, x1 = 0.03) came out at 1038.5 ± 0.2 kg/m3; the mass density (293.15 K, x1 = 0.05) came to 1064.1 ± 0.2 kg/m3; the mass density (303.15 K, x1 = 0.01) stood at 1009.7 ± 0.2 kg/m3; the mass density (303.15 K, x1 = 0.03) is 1035.7 ± 0.2 kg/m3; the mass density (303.15 K, x1 = 0.05) is on record as 1061.2 ± 0.2 kg/m3. Also, the mass density (313.15 K, x1 = 0.01) came out at 1006.2 ± 0.2 kg/m3; the mass density (313.15 K, x1 = 0.03) came out at 1032.3 ± 0.2 kg/m3; the mass density (313.15 K, x1 = 0.05) came out at 1057.9 ± 0.2 kg/m3; the mass density (323.15 K, x1 = 0.01) is reported as 1002.1 ± 0.2 kg/m3; the mass density (323.15 K, x1 = 0.03) worked out at 1028.3 ± 0.2 kg/m3; the mass density (323.15 K, x1 = 0.05) was determined as 1054 ± 0.2 kg/m3. Moreover, the mass density (333.15 K, x1 = 0.01) worked out at 997.4 ± 0.2 kg/m3; the mass density (333.15 K, x1 = 0.03) is 1023.8 ± 0.2 kg/m3; the mass density (333.15 K, x1 = 0.05) amounted to 1049.8 ± 0.2 kg/m3.
As for `[I-].[Li+]` [lithium iodide] + O, the mass density (293.15 K, x1 = 0.01) was 1053.3 ± 0.2 kg/m3; the mass density (293.15 K, x1 = 0.03) is given as 1160.8 ± 0.3 kg/m3; the mass density (293.15 K, x1 = 0.05) stood at 1268.1 ± 0.4 kg/m3; the mass density (303.15 K, x1 = 0.01) is 1049.8 ± 0.2 kg/m3; the mass density (303.15 K, x1 = 0.03) is given as 1156.3 ± 0.3 kg/m3; the mass density (303.15 K, x1 = 0.05) is reported as 1262.7 ± 0.4 kg/m3. Besides, the mass density (313.15 K, x1 = 0.01) stood at 1045.7 ± 0.2 kg/m3; the mass density (313.15 K, x1 = 0.03) was found to be 1151 ± 0.3 kg/m3; the mass density (313.15 K, x1 = 0.05) came to 1257.2 ± 0.4 kg/m3; the mass density (323.15 K, x1 = 0.01) amounted to 1041.2 ± 0.2 kg/m3; the mass density (323.15 K, x1 = 0.03) was found to be 1146.1 ± 0.3 kg/m3; the mass density (323.15 K, x1 = 0.05) stood at 1251.4 ± 0.4 kg/m3. Moreover, the mass density is, setting by setting: (333.15 K, x1 = 0.01) 1036.2 ± 0.2 kg/m3; (333.15 K, x1 = 0.03) 1140.7 ± 0.3 kg/m3; (333.15 K, x1 = 0.05) 1245.5 ± 0.4 kg/m3.
As to `[Br-].[K+]` [potassium bromide] + O, the mass density (293.15 K, x1 = 0.01) was determined as 1045.7 ± 0.2 kg/m3; the mass density (293.15 K, x1 = 0.03) is 1137.7 ± 0.3 kg/m3; the mass density (293.15 K, x1 = 0.05) is reported as 1227.4 ± 0.3 kg/m3; the mass density (303.15 K, x1 = 0.01) is listed as 1042.6 ± 0.2 kg/m3; the mass density (303.15 K, x1 = 0.03) is recorded as 1133.7 ± 0.3 kg/m3; the mass density (303.15 K, x1 = 0.05) was 1222.6 ± 0.3 kg/m3. For the same compound, the mass density runs as follows: (313.15 K, x1 = 0.01) 1038.7 ± 0.2 kg/m3; (313.15 K, x1 = 0.03) 1129.1 ± 0.3 kg/m3; (313.15 K, x1 = 0.05) 1217.4 ± 0.3 kg/m3; (323.15 K, x1 = 0.01) 1034.2 ± 0.2 kg/m3; (323.15 K, x1 = 0.03) 1123.9 ± 0.3 kg/m3; (323.15 K, x1 = 0.05) 1211.7 ± 0.3 kg/m3. Moreover, the mass density came out at 1029.2 ± 0.2 kg/m3 (333.15 K, x1 = 0.01); 1118.4 ± 0.3 kg/m3 (333.15 K, x1 = 0.03); 1205.7 ± 0.3 kg/m3 (333.15 K, x1 = 0.05).
On to `[Cl-].[K+]` [potassium chloride] + O, for which the mass density runs as follows: (293.15 K, x1 = 0.01) 1024.3 ± 0.2 kg/m3; (293.15 K, x1 = 0.03) 1074.8 ± 0.2 kg/m3; (293.15 K, x1 = 0.05) 1123.6 ± 0.3 kg/m3; (303.15 K, x1 = 0.01) 1021.4 ± 0.2 kg/m3; (303.15 K, x1 = 0.03) 1071.2 ± 0.2 kg/m3; (303.15 K, x1 = 0.05) 1119.6 ± 0.3 kg/m3. Also, the mass density by setting is: (313.15 K, x1 = 0.01) 1017.7 ± 0.2 kg/m3; (313.15 K, x1 = 0.03) 1067 ± 0.2 kg/m3; (313.15 K, x1 = 0.05) 1115.1 ± 0.3 kg/m3; (323.15 K, x1 = 0.01) 1013.3 ± 0.2 kg/m3; (323.15 K, x1 = 0.03) 1062.4 ± 0.2 kg/m3; (323.15 K, x1 = 0.05) 1110.2 ± 0.3 kg/m3. Also, the mass density reads like this: (333.15 K, x1 = 0.01) 1008.4 ± 0.2 kg/m3; (333.15 K, x1 = 0.03) 1057.2 ± 0.3 kg/m3; (333.15 K, x1 = 0.05) 1104.9 ± 0.3 kg/m3.
